Values belong to the molecule of their own block, whether it stands above or below them.
Assays:
Conditions in all cases: 72 h
CAL-51 [1] = tested on: CAL-51
Experimental: (§1)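 Drug sensitivity and resistance testing (DSRT) of breast cancer cell lines in 384-well plates, 5 concentrations in 10-fold dilutions over a compound-specific 10,000-fold range. After 72 h, cytotoxicity was read by CellTox Green fluorescence and viability by CellTiter-Glo luminescence (multiplexed), normalised to DMSO and benzethonium chloride controls. EC50 is the inflection point of the fitted dose-response curve (bottom asymptote free, so it can be relative for partial curves) and is censored at the highest tested concentration. Rows with DSS 0 (no meaningful response) were excluded.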

MDA-MB-468 [2] = tested on: MDA-MB-468
Experimental: as §1

MDA-MB-453 [3] = tested on: MDA-MB-453
In short: (§2)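 Seeding of breast cancer cell lines (20 µl suspension) was done into 384-well plates pre-loaded with compound at 5 concentrations, 10-fold apart, covering a compound-specific 10,000-fold range. The plates were incubated for 72 h, read for CellTox Green fluorescence (485/520 nm), and then read for CellTiter-Glo luminescence after 10 min at room temperature. Every plate was normalised to 0.1 % DMSO and a positive kill control. Curve fitting gave the EC50, censored at the top concentration.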

HCC1143 [4] = tested on: HCC1143
In short: as §2

CAL-120 [5] = tested on: CAL-120
In short: as §2

CAL-85-1 [6] = tested on: CAL-85-1
In short: as §2

HCC1599 [7] = tested on: HCC1599
In short: as §2

SK-BR-3 [8] = tested on: SK-BR-3
In short: as §2

MCF-10A [9] = tested on: MCF-10A
In short: as §2

MDA-MB-436 [10] = tested on: MDA-MB-436
Experimental: as §1

MDA-MB-231 [11] = tested on: MDA-MB-231
Experimental: as §1

CAL-85-1 [12] = tested on: CAL-85-1; remark: listed apart in the source
In short: (§3)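 Breast cancer cell lines in 20 µl suspension were seeded onto 384-well plates pre-loaded with compound dissolved in 5 µl medium, then incubated 72 h. For viability, 2.5 µl CellTiter-Blue was added for 2 h at 37 °C and fluorescence read at 560/590 nm. Each plate was normalised to vehicle and a positive kill control and checked by Z'-factor. EC50 comes from the fitted percent-inhibition dose-response curve, censored at the highest concentration; rows with zero drug sensitivity score were dropped.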

HDQ-P1 [13] = tested on: HDQ-P1
In short: as §3

HCC1143 [14] = tested on: HCC1143; remark: listed apart in the source
In short: as §3

BT-549 [15] = tested on: BT-549
In short: as §3

Hs578T [16] = tested on: Hs578T
In short: as §3

HCC1937 [17] = tested on: HCC1937
In short: as §3

HCC1599 [18] = tested on: HCC1599; remark: listed apart in the source
In short: as §3

SK-BR-3 [19] = tested on: SK-BR-3; remark: listed apart in the source
In short: as §3

BT-474 [20] = tested on: BT-474
In short: as §3

MDA-MB-436 [21] = tested on: MDA-MB-436; remark: listed apart in the source
In short: as §2

BT-549 [22] = tested on: BT-549; remark: listed apart in the source
In short: as §2

Hs578T [23] = tested on: Hs578T; remark: listed apart in the source
In short: as §2

CAL-148 = tested on: CAL-148
In short: as §2

CAL-51 [24] = tested on: CAL-51; remark: listed apart in the source
In short: as §2

HCC1937 [25] = tested on: HCC1937; remark: listed apart in the source
In short: as §2

MFM-223 [26] = tested on: MFM-223
In short: as §2

MDA-MB-231 [27] = tested on: MDA-MB-231; remark: listed apart in the source
In short: as §2

DU-4475 [28] = tested on: DU-4475
In short: as §2

MDA-MB-453 [29] = tested on: MDA-MB-453; remark: listed apart in the source
Experimental: as §1

HCC1143 [30] = tested on: HCC1143; remark: listed apart in the source
Experimental: as §1

BT-549 [31] = tested on: BT-549; remark: listed apart in the source
Experimental: as §1

Hs578T [32] = tested on: Hs578T; remark: listed apart in the source
Experimental: as §1

HCC1937 [33] = tested on: HCC1937; remark: listed apart in the source
Experimental: as §1

MFM-223 [34] = tested on: MFM-223; remark: listed apart in the source
Experimental: as §1

CAL-85-1 [35] = tested on: CAL-85-1; remark: listed apart in the source
Experimental: as §1

HCC1599 [36] = tested on: HCC1599; remark: listed apart in the source
Experimental: as §1

BT-474 [37] = tested on: BT-474; remark: listed apart in the source
Experimental: as §1

DU-4475 [38] = tested on: DU-4475; remark: listed apart in the source
Experimental: as §1

HDQ-P1 [39] = tested on: HDQ-P1; remark: listed apart in the source
Experimental: as §1

MCF-10A [40] = tested on: MCF-10A; remark: listed apart in the source
Experimental: as §1

MDA-MB-453 [41] = tested on: MDA-MB-453; remark: listed apart in the source
In short: as §3

CAL-51 [42] = tested on: CAL-51; remark: listed apart in the source
In short: as §3

DU-4475 [43] = tested on: DU-4475; remark: listed apart in the source
In short: as §3

CAL-120 [44] = tested on: CAL-120; remark: listed apart in the source
In short: as §3

MFM-223 [45] = tested on: MFM-223; remark: listed apart in the source
In short: as §3

MDA-MB-231 [46] = tested on: MDA-MB-231; remark: listed apart in the source
In short: as §3

MDA-MB-468 [47] = tested on: MDA-MB-468; remark: listed apart in the source
In short: as §3

CAL-120 [48] = tested on: CAL-120; remark: listed apart in the source
Experimental: as §1

SMILES: C[C@]12CC[C@@H]3c4ccc(OC(=O)N(CCCl)CCCl)cc4CC[C@H]3[C@@H]1CC[C@@H]2O [Estramustine]
EC50, CellTox Green (CAL-51 [1]): 0.131 µM | EC50, CellTox Green (MDA-MB-468 [2]): 4.99 µM

EC50, CellTiter-Glo (MDA-MB-453 [3]): 0.892 µM | EC50, CellTiter-Glo (HCC1143 [4]): > 10 µM | EC50, CellTiter-Glo (HCC1599 [7]): 1.94 µM | EC50, CellTiter-Glo (SK-BR-3 [8]): 1.46 µM
SMILES: C[C@]1(O)C[C@@H](c2nc(-c3ccc4ccc(-c5ccccc5)nc4c3)c3c(N)nccn32)C1 [Linsitinib]
EC50, CellTiter-Glo (CAL-120 [5]): 8.04 µM | EC50, CellTiter-Glo (CAL-85-1 [6]): 3.55 µM | EC50, CellTiter-Glo (MCF-10A [9]): 0.645 µM | EC50, CellTox Green (MDA-MB-436 [10]): 6 µM | EC50, CellTox Green (MDA-MB-231 [11]): > 10 µM

EC50, CellTiter-Blue viability (HCC1143 [14]): 0.881 µM | EC50, CellTiter-Blue viability (BT-549 [15]): 7.1 µM | EC50, CellTiter-Blue viability (HCC1937 [17]): 9.83 µM | EC50, CellTiter-Blue viability (HCC1599 [18]): 0.204 µM | EC50, CellTiter-Blue viability (SK-BR-3 [19]): 0.105 µM | EC50, CellTiter-Blue viability (BT-474 [20]): 1.68 µM
SMILES: C[C@]1(O)C[C@@H](c2nc(-c3ccc4ccc(-c5ccccc5)nc4c3)c3c(N)nccn32)C1 [OSI-906]
EC50, CellTiter-Blue viability (CAL-85-1 [12]): 7.72 µM | EC50, CellTiter-Blue viability (HDQ-P1 [13]): 0.278 µM | EC50, CellTiter-Blue viability (Hs578T [16]): 1.91 µM

EC50, CellTiter-Glo (MDA-MB-453 [3]): 0.0986 µM | EC50, CellTiter-Glo (MDA-MB-436 [21]): 0.0298 µM | EC50, CellTiter-Glo (HCC1143 [4]): 0.0513 µM | EC50, CellTiter-Glo (BT-549 [22]): 0.039 µM | EC50, CellTiter-Glo (HCC1937 [25]): 0.0485 µM | EC50, CellTiter-Glo (HCC1599 [7]): 0.0872 µM | EC50, CellTiter-Glo (SK-BR-3 [8]): 0.0268 µM | EC50, CellTiter-Glo (MDA-MB-231 [27]): 0.0276 µM
SMILES: Cc1ccc([N+](=O)[O-])cc1S(=O)(=O)N(C)/N=C/c1cnc2ccc(Br)cn12 [PIK-75]
EC50, CellTiter-Glo (Hs578T [23]): 0.0354 µM | EC50, CellTiter-Glo (CAL-148): 0.0211 µM | EC50, CellTiter-Glo (CAL-51 [24]): 0.0213 µM | EC50, CellTiter-Glo (CAL-120 [5]): 0.0292 µM | EC50, CellTiter-Glo (MFM-223 [26]): 0.0522 µM | EC50, CellTiter-Glo (CAL-85-1 [6]): 0.0306 µM | EC50, CellTiter-Glo (DU-4475 [28]): 0.0353 µM | EC50, CellTiter-Glo (MCF-10A [9]): 0.0457 µM | EC50, CellTox Green (MDA-MB-453 [29]): 0.597 µM | EC50, CellTox Green (HCC1143 [30]): 0.182 µM | EC50, CellTox Green (BT-549 [31]): 0.274 µM | EC50, CellTox Green (Hs578T [32]): 0.042 µM | EC50, CellTox Green (CAL-51 [1]): 0.00621 µM | EC50, CellTox Green (HCC1937 [33]): 6.4 µM | EC50, CellTox Green (MFM-223 [34]): 0.582 µM | EC50, CellTox Green (CAL-85-1 [35]): 0.0316 µM | EC50, CellTox Green (HCC1599 [36]): 0.0339 µM | EC50, CellTox Green (BT-474 [37]): 0.161 µM | EC50, CellTox Green (MDA-MB-231 [11]): 0.00639 µM | EC50, CellTox Green (DU-4475 [38]): 0.0238 µM | EC50, CellTox Green (HDQ-P1 [39]): 0.105 µM | EC50, CellTox Green (MCF-10A [40]): 0.0166 µM | EC50, CellTox Green (MDA-MB-468 [2]): 0.178 µM

EC50, CellTiter-Glo (SK-BR-3 [8]): 2.24 µM
SMILES: CC(=O)c1c(C)c2cnc(Nc3ccc(N4CCNCC4)cn3)nc2n(C2CCCC2)c1=O [Palbociclib]
EC50, CellTiter-Glo (Hs578T [23]): > 10 µM | EC50, CellTiter-Glo (CAL-51 [24]): > 10 µM | EC50, CellTiter-Glo (CAL-120 [5]): 0.409 µM | EC50, CellTiter-Glo (MFM-223 [26]): 0.0869 µM | EC50, CellTiter-Glo (MCF-10A [9]): 1.02 µM

EC50, CellTiter-Blue viability (MDA-MB-453 [41]): 38.3 µM
SMILES: CC[C@@H]1C(=O)OC[C@@H]1Cc1cncn1C [Pilocarpine]

EC50, CellTiter-Blue viability (MDA-MB-453 [41]): 4.26 µM | EC50, CellTiter-Blue viability (HCC1143 [14]): 0.159 µM | EC50, CellTiter-Blue viability (HCC1937 [17]): 1.31 µM | EC50, CellTiter-Blue viability (MDA-MB-231 [46]): 0.0213 µM | EC50, CellTiter-Blue viability (MDA-MB-468 [47]): 7.18 µM
SMILES: COc1cc(F)c(F)c(Nc2ccc(I)cc2F)c1NS(=O)(=O)C1(C[C@H](O)CO)CC1 [RDEA119]
EC50, CellTiter-Blue viability (CAL-51 [42]): 0.196 µM | EC50, CellTiter-Blue viability (CAL-85-1 [12]): 0.557 µM | EC50, CellTiter-Blue viability (DU-4475 [43]): 0.0426 µM | EC50, CellTiter-Blue viability (HDQ-P1 [13]): 0.318 µM | EC50, CellTiter-Blue viability (Hs578T [16]): 0.081 µM | EC50, CellTiter-Blue viability (CAL-120 [44]): 0.585 µM | EC50, CellTiter-Blue viability (MFM-223 [45]): 2.87 µM

EC50, CellTiter-Glo (MDA-MB-436 [21]): 6.63 µM | EC50, CellTiter-Glo (HCC1143 [4]): 1.62 µM | EC50, CellTiter-Glo (BT-549 [22]): 2.21 µM | EC50, CellTiter-Glo (HCC1937 [25]): 5.05 µM | EC50, CellTiter-Glo (MDA-MB-231 [27]): 0.429 µM
SMILES: COc1cc(F)c(F)c(Nc2ccc(I)cc2F)c1NS(=O)(=O)C1(C[C@H](O)CO)CC1 [Refametinib]
EC50, CellTiter-Glo (Hs578T [23]): 6.15 µM | EC50, CellTiter-Glo (CAL-148): 6.68 µM | EC50, CellTiter-Glo (CAL-120 [5]): 0.315 µM | EC50, CellTiter-Glo (MFM-223 [26]): 6.03 µM | EC50, CellTiter-Glo (CAL-85-1 [6]): 0.84 µM | EC50, CellTiter-Glo (DU-4475 [28]): 0.0636 µM | EC50, CellTiter-Glo (MCF-10A [9]): 0.00698 µM | EC50, CellTox Green (CAL-120 [48]): > 10 µM | EC50, CellTox Green (CAL-85-1 [35]): 0.788 µM | EC50, CellTox Green (MDA-MB-231 [11]): 0.0232 µM | EC50, CellTox Green (DU-4475 [38]): 0.11 µM | EC50, CellTox Green (MDA-MB-468 [2]): 2.69 µM

Reference: the supplement of paper PMC4862054
